Where “and” joins values, the source holds several entries; their conditions need not be identical. Equal values may be shown once. Marks after values point to notes of the source that are not given here.
Tests used:
[1] = test system: mice exposed to hypobaric hypoxia; assay: Acute hypobaric hypoxia in flow-exhaust chamber; format: in vivo
Experimental: (§1) White nondescript male mice with body weight 22-28 g were used in the experiments. Each dose level was studied in 10 animals. Control animals received equivalent volume of distilled water. Nooglutyl was used as reference agent. Study compounds were administered intraperitoneally 40 minutes before the experiment.
(§2) Acute hypobaric hypoxia was simulated in flow-exhaust chamber. Pressure was measured with altimeter, and elevation speed with variometer. The animals were “elevated” at the speed 20 m/s to the stage at 11000 m. The exposure lasted 10 minutes. Then the animals were mover down to the baseline level for 5 minutes. Hypoxia with hypercapnia in hermovolume was created by placement of the animal into 200 ml hermetically sealed glass vessels. Life period of the animals under hypoxic conditions was recorded. Each group comprised 10 animals.

[2] = test system: mice exposed to hypoxia in hermovolume; assay: Hypoxia with hypercapnia in hermovolume; format: in vivo
Experimental: as §1, §2

[3] = test system: rats with induced ischemia; assay: Passive avoidance response in animals with induced ischemia; format: in vivo; conditions: 24 hours after learning, 180 seconds test
Excerpt: In separate series of the experiments the animals learned in the test of passive avoidance response (PAR), which was formed in apparatus supplied by Lafayette Instrument Co. (USA) comprising brightly illuminated hanging platform connected to dark chamber with electrified floor. In the course of learning the rat entered dark chamber due to congenital hole reflex, and received pain electric stimulus.
These effects of nooglutyl and Compound Ia were significant compared with control at p<0.05.

[4] = test system: rats with hemorrhagic stroke; assay: Intracerebral posttraumatic hematoma (hemorrhagic stroke): survival; format: in vivo; conditions: 20 mg/kg single dose intraperitoneally 3-3.5 hours after surgery
Excerpt: (§3) White nondescript male rats with body weight 200-250 g, which lived in vivarium and had feed (standard palletized feed) and water ad libitum, with natural alternation of day and night, were used in the experiments. Hemorrhagic stroke (local cerebral hemorrhage) was simulated according to method by A. N. Makarenko et al. (Method of local hemorrhage simulation I various structures of the brain in experimental animals. Journal Visshei Nervnoy Deyatelnosti—Journal of Higher Nervous Activities, 2002, v. 52, No 6, p. 765-768). In nembutal-anesthetized rats (40 mg/kg, i.m.) destruction of the brain tissue in capsule interna area was made with the use of special device (mandarin-knife) followed by application of blood (0.02-0.03 ml) taken from under the rat's tongue to the damaged area (within 2-3 minutes). False-operated animals underwent scalping and craniotomy. The animals were divided into 5 groups: intact rats, false-operated rats, animals with hemorrhagic stroke received nooglutyl at 20 mg/kg, and animals with hemorrhagic stroke received Compound I at 20 mg/kg. Effects were recorded within 24 hours and 14 days after the surgery. Learning ability and memory of the rats was examined in the model of passive avoidance response (PAR, Passive Avoidance supplied by Lafayette Instrument Co., USA). To determine neurological deficit in the animals Stroke-index McGrow scale modified by I. V. Gannushkina (Functional architectonics of the brain, Moscow, Medicina, 1977, 224 p.) was used. The severity of the condition was determined by the sum of the points. The number of rats with mild symptoms up to 2.5 points of Stroke-index scale (apathy, weakness of the extremities, unilateral semiptosis, tremor, circus movements) and severe manifestations of neurological disorders (3 to 10 points)—paresis of the extremities, palsy of low extremities, lateral position. The animals received single dose of nooglutyl and Compound I at the same dose 20 mg/kg intraperitoneally within 3-3.5 hours after the surgery. Controlled animals were treated with saline. At onset of the experiment each group comprised 15-20 animals. Mortality of the rats was recorded throughout the observation period (14 days). Statistical analysis was made using parametrical and non-parametrical methods and Biostat software. Nimodipin administered at 01.mg/kg according to above scheme was considered as a standard.

in vivo = conditions: male, white nondescript (outbred), mouse, ip
Experimental: The study of acute daily toxicity of Compound I was carried out on white nondescript male mice with body weight 25-28 g, which lived in habitual conditions in vivarium and received feed and water ad libitum. Single dose of Compound I was administered intraperitoneally. The animals were under observation for 2 days after the dosing. The dose levels of Compound I used in the toxicity study were as follows: 800 mg/kg, 1000 mg/kg, 1200 mg/kg, 1500 mg/kg, 1600 mg/kg. Compound I was dissolved in distilled water and administered in 0, 1 ml per 10 g of the body weight of the animal when the doses 800 mg/kg and 1000 mg/kg, and in 0.2 ml per 10 g of the body weight when the doses 1200 mg/kg, 1500 mg/kg, 1600 mg/kg were used. Control animals received distilled water in the volume 0.2 ml per 10 g of the body weight.
Each dose group comprised 10 animals.

aged rats (24 months) = assay: Motor coordination of aged rats on rotating rod; format: in vivo; conditions: for Number of the animals (%), which obtained the skill, By attempt 5 / Number of the animals (%), which obtained the skill, By attempt 15 / Number of the animals (%), which obtained the skill, By attempt 10: aged rats 24 months, 20 mg/kg 60 days, rotating rod 2 minutes; for Number of the animals (%), which obtained the skill, By attempt 10: 20 mg/kg; for Number of attempts required for learning to 50% of the animals: aged rats treated for 2 months, untreated aged animals 17th attempt
Experimental: White nondescript male rats (Wistar line): to adult animals at age 3 months with body weight 250-300 g and aged 24 month old animals with body weight 350-450 g were used in the study. Nooglutyl at dose level 20 mg/kg and Compound I were administered to aged rats intraperitoneally for 2 months followed by assessment of the effect on learning capacity impaired by age and neurological deficit. Analysis of variance with Student's test, variant portion method and U-test were employed for data processing.
To assess neurological deficit in aged animals (disturbed coordination and capacity for learning motor responses) the rats were placed on the rotating rod. The number of attempts required to obtain the skill of holding on the rotating rod for 2 minutes was registered. […] Under similar conditions only 25% of aged rats obtained this skill starting from the 11th-14th attempt. […] 60% of aged rats treated with nooglutyl and 66% of aged rats treated with Compound I for 2 months learned the skill by the 10th attempt.

[5] = test system: rats with hemorrhagic stroke; assay: Hemorrhagic stroke: reproduction of passive avoidance response; format: in vivo; conditions: 20 mg/kg; for Increase of the share of rats with HS that retained the memory trace: PAR reproduction on Day 14, versus 8% of untreated rats with stroke
Excerpt: as §3

[6] = 30 mg/kg intraperitoneally 40 minutes before the experiment
[7] = 60 mg/kg intraperitoneally 40 minutes before the experiment
[8] = 120 mg/kg intraperitoneally 40 minutes before the experiment
[9] = PAR reproduction within 24 hours
[10] = PAR reproduction within 14 days

In the case of `O=C([O-])CC[C@H](NC(=O)c1cncc(O)c1)C(=O)[O-].[Ca+2]` [Compound I, Calcium N-(5-hydroxynicotinoyl)-L-glutamate], the “Life interval of mice (minutes) exposed to hypobaric hypoxia” value (shortened to “Life interval … to hypobaric hypoxia”) [1, 6] was 6.51 ± 0.82 min, the “Life interval … to hypobaric hypoxia” value [1, 7] was 9.17 ± 0.91 min and the “Life interval of mice (minutes) exposed to hypoxia in hermovolume” value (“Life interval of mice … in hermovolume” for short) [2, 6] was 16.2 ± 0.31 min. For the same compound, the “Life interval of mice … in hermovolume” value [2, 7] was 17.8 ± 0.41 min, the “Life interval of mice … in hermovolume” value [2, 8] was 18.1 ± 0.48 min and the “Latent period of entry to dark dangerous chamber” value [3] was 62.3 ± 7.2 s. The “Number of animals which died in relation to total number of operated animals, absolute, Day 1 after surgery” value [4] was 1 of 20, the “Number of animals which died in relation to total number of operated animals, absolute, Day 3 after surgery” value [4] was 2 of 20 and the “Number of animals which died in relation to total number of operated animals, absolute, Day 7 after surgery” value [4] was 2 of 20. For the same compound, the “Number of animals which died in relation to total number of operated animals, absolute, Day 14 after surgery” value [4] was 2 of 20, the “Number of animals which died, %, Day 1 after surgery” value [4] was 5% and the “Number of animals which died, %, Day 3 after surgery” value [4] was 10## %. For the same compound, the “Number of animals which died, %, Day 7 after surgery” value [4] was 10## %, the “Number of animals which died, %, Day 14 after surgery” value (“Number … %, Day 14 after surgery” for short) [4] was 10% and the “Number … %, Day 14 after surgery” value ([4]; listed as compound I) was 10## %. The LD50 at 2 days (in vivo) was 1150 mg/kg, the “Number of the animals (%), which obtained the skill, By attempt 5” value (aged rats (24 months)) was 20% and the “Number of the animals (%), which obtained the skill, By attempt 15” value (aged rats (24 months)) was 66# %. The “Number of the animals (%), which obtained the skill, By attempt 10” value (“Number of the animals (%) … By attempt 10” for short) (aged rats (24 months)) was 66% and 60# %, the “Number of attempts required for learning to 50% of the animals” value (aged rats (24 months)) was 6 attempt and the “Increase of the share of rats with HS that retained the memory trace” value [5] was 6.5 fold. The “Latent period of entry to dark chamber (c)” value (“Latent period of entry … (c)” below) [5, 9] was 128.1 ± 17.6 c, the “Number of animals, which did not enter dark chamber (%)” value [5, 9] was 63% and the “Latent period of entry … (c)” value [5, 10] was 98.9 ± 21.3 c. The “Number of animals, which did not enter dark chamber (%)” value [5, 10] was 52$$ %.

In the case of `O=C(O)CC[C@H](NC(=O)c1cncc(O)c1)C(=O)O` [Nooglutyl, N-(5-hydroxynicotinoyl)-L-glutamic acid, reference compound], the “Life interval … to hypobaric hypoxia” value [1, 6] was 4.1 ± 0.77 min, the “Life interval … to hypobaric hypoxia” value [1, 7] was 7.68 ± 0.54 min and the “Life interval of mice … in hermovolume” value [2, 6] was 13.9 ± 0.42 min. For the same compound, the “Life interval of mice … in hermovolume” value [2, 7] was 15.2 ± 0.39 min, the “Life interval of mice … in hermovolume” value [2, 8] was 16.4 ± 0.53 min and the “Latent period of entry to dark dangerous chamber” value [3] was 56.2 ± 8.3 s. The “Number of animals which died in relation to total number of operated animals, absolute, Day 1 after surgery” value [4] was 3 of 20, the “Number of animals which died in relation to total number of operated animals, absolute, Day 3 after surgery” value [4] was 4 of 20 and the “Number of animals which died in relation to total number of operated animals, absolute, Day 7 after surgery” value [4] was 4 of 20. For the same compound, the “Number of animals which died in relation to total number of operated animals, absolute, Day 14 after surgery” value [4] was 4 of 20, the “Number of animals which died, %, Day 1 after surgery” value [4] was 15% and the “Number of animals which died, %, Day 3 after surgery” value [4] was 20# %. The “Number of animals which died, %, Day 7 after surgery” value [4] was 20# %, the “Number … %, Day 14 after surgery” value [4] was 20% and the “Number … %, Day 14 after surgery” value ([4]; listed as nooglutyl) was 20## %. For the same compound, the LD50 at 2 days (in vivo) was 1200 mg/kg, the “Number of the animals (%), which obtained the skill, By attempt 5” value (aged rats (24 months)) was 20% and the “Number of the animals (%), which obtained the skill, By attempt 15” value (aged rats (24 months)) was 60# %. The “Number of the animals (%) … By attempt 10” value (aged rats (24 months)) was 60# %, the “Number of the animals (%) … By attempt 10” value (aged rats (24 months); listed as nooglutyl) was 60% and the “Number of attempts required for learning to 50% of the animals” value (aged rats (24 months)) was 7 attempt. The “Increase of the share of rats with HS that retained the memory trace” value [5] was 5 fold, the “Latent period of entry … (c)” value [5, 9] was 130.4 ± 20.1 c and the “Number of animals, which did not enter dark chamber (%)” value [5, 9] was 64%. The “Latent period of entry … (c)” value [5, 10] was 92.2 ± 18.2 c and the “Number of animals, which did not enter dark chamber (%)” value [5, 10] was 40$ %.

From patent US8030493B2, “Monovalent and divalent salts of N-(5-hydroxynicotinoil) -L-glutamic acid exhibiting psychotropic (antidepressant and anxiolytic), neuroprotective, geroprotective and cerebroprotective action” (Obschestvo S Ogranichennoy Otvetstvennostyu “Natsionalnaya …, priority 2006, dated 2011)
